# Experimental data published in patent US6914045B2, “Glycopeptide antibiotics” (Wyeth Holdings Corporation, priority 2001, dated 2005).
# Numbered stars: 1 amine (or outer) side, 2 acyl side, 3 side chain; on linkers, the order of the positions; unused ones are H or OH. Square brackets hold non-standard residues; d marks the D form. Peptide text beside a SMILES is read from it. * marks the point of attachment. ξ: configuration not given here. X6 = N=C1NCC(CC(N[*:1])C(=O)[*:2])N1C1OC(CO)C(O)C(O)C1O; ξEnduracididine(βξ-OH,4'ξ) = N=C1NCC(C(O)C(N)C(=O)O)N1; X2 = OCC1OC(OC2C(CO)OC(*)C(O)C2O)C(O)C(O)C1O; ξPhe(βξ-Me) = CC(c1ccccc1)C(N)C(=O)O
# How the values were obtained:
# Test in all cases: in vitro antibacterial evaluation, MIC by broth dilution
# Format in all cases: cell-based
# [1] = tested on: Streptococcus sp.; conditions: broth dilution, 18 hours at 35° C.
# How it was run: (§1)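 Broth dilution per NCCLS M7-A2 in Mueller-Hinton II medium, inoculum 5×10^5 CFU/mL, antibiotic range 64-0.06 μg/mL. MIC taken as lowest concentration inhibiting growth; Gram-positive panel includes recent clinical isolates resistant to methicillin, penicillin and/or vancomycin.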
# [2] = tested on: Escherichia coli; conditions: 18 hours at 35° C.
# How it was run: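 Broth dilution per NCCLS standard M7-A2 in Muller-Hinton II […], with an inoculum of 5×10^5 CFU/mL and antibiotic spanning 64-0.06 μg/mL. The MIC is the lowest concentration that inhibits growth of the organism.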
# [3] = tested on: Staphylococcus sp.; conditions: broth dilution, 18 hours at 35° C.
# How it was run: as §1
# [4] = tested on: Enterococcus sp.; conditions: broth dilution, 18 hours at 35° C.
# How it was run: as §1
compound,measurement,setting,value
"CC(c1ccccc1)C1NC(=O)CNC(=O)C(CO)NC(=O)C(CC2CNC(=N)N2C2OC(CO)C(O)C(O)C2O)NC(=O)C(C(O)C2CNC(=N)N2)NC(=O)C(Cc2ccc(OC3OC(CO)C(OC4OC(CO)C(O)C(O)C4O)C(O)C3O)cc2)NC1=O (stereo not drawn) [Example 284b, Cyclo[3-(3-hexopyranosyl-2-iminoimidazolidin-4-yl)-alanylserylglycl-β-methylphenylalanyl-O-(4-O-hexopyranosylhexopyranosyl)tyrosyl-3-(2-iminoimidazolidin-4-yl)seryl]] (cyclo(G[ξPhe(βξ-Me)]Y(X2)[ξEnduracididine(βξ-OH,4'ξ)][X6]S); configuration not given here)",MIC Streptococcus pneumoniae (ATCC 6301),[1]; strain ATCC 6301,>128 µg/mL
same,MIC Streptococcus pneumoniae (GC 1894),[1]; strain GC 1894,128 µg/mL
same,MIC Streptococcus pyogenes (GC 4563),[1]; strain GC 4563,>128 µg/mL
same,MIC Streptococcus agalactiae (GC 4564),[1]; strain GC 4564,>128 µg/mL
same,MIC Streptococcus pneumoniae (GC 4565),[1]; strain GC 4565,>128 µg/mL
same,MIC Escherichia coli (ATCC 25922),[2]; Escherichia coli (ATCC 25922),>128 µg/mL
same,MIC Escherichia coli (GC 4559),[2]; Escherichia coli (GC 4559),>128 µg/mL
same,MIC Escherichia coli (GC 4560),[2]; Escherichia coli (GC 4560),>128 µg/mL
same,MIC Coagulase Negative Staphylococcus (GC 4547),[3],>128 µg/mL
same,MIC Coagulase Negative Staphylococcus (GC 4548),[3],>128 µg/mL
same,MIC Coagulase Negative Staphylococcus (GC 4549),[3],>128 µg/mL
same,MIC Coagulase Negative Staphylococcus (GC 4551),[3],>128 µg/mL
same,MIC Staphylococcus aureus (ATCC 29213),[3],>128 µg/mL
same,MIC Staphylococcus aureus (GC 1131),[3],>128 µg/mL
same,MIC Staphylococcus aureus (GC 3051),[3],>128 µg/mL
same,MIC Staphylococcus aureus (GC 3053),[3],>128 µg/mL
same,MIC Staphylococcus aureus (GC 4541),[3],>128 µg/mL
same,MIC Staphylococcus aureus (GC 4542),[3],>128 µg/mL
same,MIC Staphylococcus aureus (GC 4544),[3],>128 µg/mL
same,MIC Staphylococcus aureus (GC 4545),[3],>128 µg/mL
same,MIC Staphylococcus aureus-SMITH (GC 4543),[3],>128 µg/mL
same,MIC Staphylococcus haemolyticus (GC 4546),[3],>128 µg/mL
same,MIC Staphylococcus aureus (ATCC 29213),[3]; strain ATCC 29213,>128 µg/mL
same,MIC Staphylococcus aureus (GC 1131),[3]; strain GC 1131,>128 µg/mL
same,MIC Staphylococcus aureus (GC 3051),[3]; strain GC 3051,>128 µg/mL
same,MIC Staphylococcus aureus (GC 3053),[3]; strain GC 3053,>128 µg/mL
same,MIC Staphylococcus aureus (GC 4541),[3]; strain GC 4541,>128 µg/mL
same,MIC Staphylococcus aureus (GC 4542),[3]; strain GC 4542,>128 µg/mL
same,MIC Staphylococcus aureus (GC 4544),[3]; strain GC 4544,>128 µg/mL
same,MIC Staphylococcus aureus (GC 4545),[3]; strain GC 4545,>128 µg/mL
same,MIC Staphylococcus haemolyticus (GC 4546),[3]; strain GC 4546,>128 µg/mL
same,MIC Coagulase Negative Staphylococcus (GC 4547),[3]; strain GC 4547,>128 µg/mL
same,MIC Coagulase Negative Staphylococcus (GC 4548),[3]; strain GC 4548,>128 µg/mL
same,MIC Coagulase Negative Staphylococcus (GC 4549),[3]; strain GC 4549,>128 µg/mL
same,MIC Coagulase Negative Staphylococcus (GC 4551),[3]; strain GC 4551,>128 µg/mL
same,MIC Staphylococcus aureus-SMITH (GC 4543),[3]; strain SMITH GC 4543,>128 µg/mL
same,MIC Enterococcus avium (GC 4558),[4]; Enterococcus avium (GC 4558),128 µg/mL
same,MIC Enterococcus faecalis (ATCC 29212),[4]; Enterococcus faecalis (ATCC 29212),>128 µg/mL
same,MIC Enterococcus faecalis (GC 4553),[4]; Enterococcus faecalis (GC 4553),>128 µg/mL
same,MIC Enterococcus faecalis (GC 4554),[4]; Enterococcus faecalis (GC 4554),>128 µg/mL
same,MIC Enterococcus faecalis (GC 6189),[4]; Enterococcus faecalis (GC 6189),>128 µg/mL
same,MIC Enterococcus faecium (GC 2243),[4]; Enterococcus faecium (GC 2243),>128 µg/mL
same,MIC Enterococcus faecium (GC 4556),[4]; Enterococcus faecium (GC 4556),>128 µg/mL
same,MIC Enterococcus faecium (GC 4557),[4]; Enterococcus faecium (GC 4557),128 µg/mL
same,MIC Enterococcus faecalis (ATCC 29212),[4]; strain ATCC 29212,>128 µg/mL
same,MIC Enterococcus faecalis (GC 2242),[4]; strain GC 2242,>128 µg/mL
same,MIC Enterococcus faecium (GC 2243),[4]; strain GC 2243,>128 µg/mL
same,MIC Enterococcus faecalis (GC 2691),[4]; strain GC 2691,>128 µg/mL
same,MIC Enterococcus faecalis (GC 3059),[4]; strain GC 3059,>128 µg/mL
same,MIC Enterococcus faecalis (GC 4552),[4]; strain GC 4552,>128 µg/mL
same,MIC Enterococcus faecalis (GC 4553),[4]; strain GC 4553,>128 µg/mL
same,MIC Enterococcus faecalis (GC 4554),[4]; strain GC 4554,>128 µg/mL
same,MIC Enterococcus faecium (GC 4556),[4]; strain GC 4556,>128 µg/mL
same,MIC Enterococcus faecium (GC 4557),[4]; strain GC 4557,128 µg/mL
same,MIC Enterococcus avium (GC 4558),[4]; strain GC 4558,128 µg/mL
same,MIC Enterococcus faecalis (GC 6189),[4]; strain GC 6189,>128 µg/mL
